The source of these data is ChEMBL document CHEMBL1149010, “A comparative study on anti-inflammatory activities of the enantiomers, shikonin and alkannin” (1986).

Type in all cases: functional
For assay [1], the system named is Rattus norvegicus. Kind of assay: Decrease in histamine-induced capillary permeability in Wistar rat assessed as inhibition of pontamine sky blue 6BX dye leakage at 50 ug treated topically relative to control.
Assay [2] relates to Rattus norvegicus. As to the kind of experiment: Decrease in histamine-induced capillary permeability in Wistar rat assessed as inhibition of pontamine sky blue 6BX dye leakage at 100 ug treated topically relative to control.
Assay [3] has as its system Rattus norvegicus. As to the kind of experiment: Antiinflammatory activity against thermal injury-induced edema in Wistar rat skin assessed as inhibition of edema at 50 ug treated topically relative to control. Also noted: scale not given: the % may be the effect or the level left.
Assay [4] has as its system Rattus norvegicus. As to the kind of experiment: Antiinflammatory activity against thermal injury-induced edema in Wistar rat skin assessed as inhibition of edema at 100 ug treated topically relative to control. Also noted: scale not given: the % may be the effect or the level left.

The structures appear in SMILES notation.

Regarding `CC(C)=CC[C@@H](O)C1=CC(=O)c2c(O)ccc(O)c2C1=O` (stereo in doubt; form 1) [SHIKONIN], the “inhibition (INH)” value in assay [1] is recorded as 13.7%; in assay [2], 22.3%. For the same compound, the Activity in assay [3] worked out at 22%; in assay [4], 20.6%.
On to `CC(C)=CC[C@@H](O)C1=CC(=O)c2c(O)ccc(O)c2C1=O` (stereo in doubt; form 2) [SHIKONIN], for which the Activity in assay [3] is given as 26.7%; in assay [4], 23.2%.
`CC(C)=CC[C@H](O)C1=CC(=O)c2c(O)ccc(O)c2C1=O` [ALKANNIN]: the “inhibition (INH)” value in assay [1] is reported as 7.9%; in assay [2], 21.3%. Moreover, the values for the Activity in assay [3] and in assay [4] were 21.3% and 21.7%, respectively.
For the compound `CCCCC1C(=O)N(c2ccccc2)N(c2ccccc2)C1=O` [PHENYLBUTAZONE], in assay [3], the Activity was 38.9%.
